Laboratory results as given in patent US20120101136A1, “5-MEMBERED HETEROARYL DERIVATIVES USED AS SPHINGOSINE 1- PHOSPHATE RECEPTOR AGONISTS” (GLAXO GROUP LIMITED, priority 2009, published 2012).

Biological target: T1, S1P1 receptor (human Endothelial Differentiation Gene 1 (EDG1)) (Homo sapiens, UniProt P21453)
T1 construct: TEV protease site; Gal4-VP16 transcription factor; expressed in transfected cells; host or cells: Tango GPCR-bla U2OS parental cell line (EDG1-bla/U2OS)
Experiment: S1P1 Tango Assay - 384 Well Format (EDG1-bla/U2OS cells)
Format: cell-based
Details: agonist, beta-lactamase reporter
Protocol: Recombinant EDG1-bla/U2OS cells (contain the human Endothelial Differentiation Gene 1 (EDG1) linked to a TEV protease site and a Gal4-VP16 transcription factor stably integrated into the Tango GPCR-bla U2OS parental cell line) were harvested from growth medium and passaged into assay medium (Invitrogen Freestyle Expression Medium). The cells were starved for 24 hours at 37° C., 5% CO2, harvested and resuspended in assay medium at a density of ˜200,000 cells/ml.
All test compounds were dissolved in DMSO at a concentration of 10 mM and were prepared in 100% DMSO to provide 10 point dose response curves. Test compounds prepared by Bravo (Velocity 11) were added to wells in columns 2-11 and 13-22; DMSO was added to wells in columns 12 and 23 as unstimulated controls and assay medium was added to wells in columns 1 and 24 as cell-free controls. An S1P1 agonist was added to wells in row 2, columns 2-11 as stimulated controls and test compounds were added to wells in row 2, columns 13-22 and rows 3-15, columns 2-11/13-22 (row 1 and 16 were empty and not used). Compounds in solution were added to the assay plate (Greiner 781090) using an Echo (Labcyte) dose-response program (50 nl/well). The unstimulated and cell-free controls were loaded with 50 nl/well pure DMSO to ensure that the DMSO concentration was constant across the plate for all assays.
50 μl of the cell suspension was added to each well in columns 2-23 of the plate (˜10,000 cells per well). 50 μl of assay medium was added to each well in the cell-free controls (columns 1 and 24). The cells were incubated overnight at 37° C./5% CO2.
10 μl of 6× substrate mixture (LiveBLAzer™-FRET B/G substrate (CCF4-AM) Cat # K1096 from Invitrogen, Inc.) was added to each well using Bravo and the plates incubated at room temperature for 2 h in the dark. The plate was finally read on EnVision using one excitation channel (409 nm) and two emission channels (460 nm and 530 nm).
The blue/green emission ratio (460 nm/530 nm) was calculated for each well, by dividing the background-subtracted Blue emission values by the background-subtracted Green emission values. The dose response curve is based on sigmoidal dose-response model. All ratio data was normalized based upon the maximum emission ratio of positive control and minimum emission ratio of negative control (DMSO) on each plate. The intrinsic activity (IA) of each compound would be the normalized percentage of its maximum response after curve fitting.

T1 sequence (P21453 whole entry, the tested form may be a part): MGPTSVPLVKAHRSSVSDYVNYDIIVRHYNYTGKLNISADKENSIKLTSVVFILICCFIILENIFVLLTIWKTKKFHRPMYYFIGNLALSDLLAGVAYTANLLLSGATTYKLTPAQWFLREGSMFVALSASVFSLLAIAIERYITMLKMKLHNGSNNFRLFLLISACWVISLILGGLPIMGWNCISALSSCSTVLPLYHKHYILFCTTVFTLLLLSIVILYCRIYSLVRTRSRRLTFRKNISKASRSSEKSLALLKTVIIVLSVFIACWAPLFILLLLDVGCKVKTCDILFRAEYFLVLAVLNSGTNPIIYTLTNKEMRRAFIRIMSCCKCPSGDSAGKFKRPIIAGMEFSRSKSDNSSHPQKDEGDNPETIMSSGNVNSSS

EC50 [nM] | SMILES
≤ 100 | CCc1cc(OCCCNC)ccc1-c1nnc(-c2ccc(OC(C)C)c(C#N)c2)o1 [Example 14, 5-[5-(2-ethyl-4-{[3-(methylamino)propyl]oxy}phenyl)-1,3,4-oxadiazol-2-yl]-2-[(1-methylethyl)oxy]benzonitrile]
≤ 1 | CCc1cc(OCCCC(=O)O)ccc1-c1nnc(-c2ccc(OC(C)C)c(C#N)c2)o1 [Example 15, 4-{[4-(5-{3-cyano-4-[(1-methylethyl)oxy]phenyl}-1,3,4-oxadiazol-2-yl)-3-ethylphenyl]oxy}butanoic acid]
≤ 1 | CCc1cc(OCCCC(=O)O)ccc1-c1nnc(-c2ccc(OC(C)C)c(C#N)c2)s1 [Example 16, 4-{[4-(5-{3-cyano-4-[(1-methylethyl)oxy]phenyl}-1,3,4-thiadiazol-2-yl)-3-ethylphenyl]oxy}butanoic acid]
≤ 10 | CC(C)Oc1ccc(-c2nc(-c3ccc(OCCCCN(C)C)cc3Cl)no2)cc1C#N [Example 17, 5-[3-(2-chloro-4-{[4-(dimethylamino)butyl]oxy}phenyl)-1,2,4-oxadiazol-5-yl]-2-[(1-methylethyl)oxy]benzonitrile]
≤ 10 | CC(C)NCCCCOc1ccc(-c2noc(-c3ccc(OC(C)C)c(C#N)c3)n2)c(Cl)c1 [Example 18, 5-{3-[2-chloro-4-({4-[(1-methylethyl)amino]butyl}oxy)phenyl]-1,2,4-oxadiazol-5-yl}-2-[(1-methylethyl)oxy]benzonitrile]
≤ 10 | CCCNCCCCOc1ccc(-c2noc(-c3ccc(OC(C)C)c(C#N)c3)n2)c(Cl)c1 [Example 19, 5-[3-(2-chloro-4-{[4-(propylamino)butyl]oxy}phenyl)-1,2,4-oxadiazol-5-yl]-2-[(1-methylethyl)oxy]benzonitrile]
≤ 10 | CCNCCCCOc1ccc(-c2noc(-c3ccc(OC(C)C)c(C#N)c3)n2)c(Cl)c1 [Example 20, 5-[3-(2-chloro-4-{[4-(ethylamino)butyl]oxy}phenyl)-1,2,4-oxadiazol-5-yl]-2-[(1-methylethyl)oxy]benzonitrile]
≤ 1 | CNCCCCOc1ccc(-c2noc(-c3ccc(OC(C)C)c(C#N)c3)n2)c(Cl)c1 [Example 21, 5-[3-(2-chloro-4-{[4-(methylamino)butyl]oxy}phenyl)-1,2,4-oxadiazol-5-yl]-2-[(1-methylethyl)oxy]benzonitrile]
≤ 0.1 | CC(C)Oc1ccc(-c2nc(-c3ccc(OCCCC(=O)O)cc3F)no2)cc1C#N [Example 22, 4-{[4-(5-{3-cyano-4-[(1-methylethyl)oxy]phenyl}-1,2,4-oxadiazol-3-yl)-3-fluorophenyl]oxy}butanoic acid]
≤ 100 | CC(C)Oc1ccc(-c2nc(-c3ccc(OCC(=O)O)cc3F)no2)cc1C#N [Example 23, {[4-(5-{3-cyano-4-[(1-methylethyl)oxy]phenyl}-1,2,4-oxadiazol-3-yl)-3-fluorophenyl]oxy}acetic acid]
≤ 1 | CC(C)Oc1ccc(-c2nc(-c3ccc(OCCCC(=O)O)cc3)no2)cc1C#N [Example 24, 4-{[4-(5-{3-cyano-4-[(1-methylethyl)oxy]phenyl}-1,2,4-oxadiazol-3-yl)phenyl]oxy}butanoic acid]
≤ 100 | CC(C)Oc1ccc(-c2nc(-c3ccc(OCC(=O)O)cc3)no2)cc1C#N [Example 25, {[4-(5-{3-cyano-4-[(1-methylethyl)oxy]phenyl}-1,2,4-oxadiazol-3-yl)phenyl]oxy}acetic acid]
≤ 10 | CCc1cc(OCCNC)ccc1-c1noc(-c2ccc(OC(C)C)c(Cl)c2)n1 [Example 26, (2-{[4-(5-{3-chloro-4-[(1-methylethyl)oxy]phenyl}-1,2,4-oxadiazol-3-yl)-3-ethylphenyl]oxy}ethyl)methylamine]
≤ 1 | CCc1cc(OCC(=O)O)ccc1-c1noc(-c2ccc(OC(C)C)c(C#N)c2)n1 [Example 27, {[4-(5-{3-cyano-4-[(1-methylethyl)oxy]phenyl}-1,2,4-oxadiazol-3-yl)-3-ethylphenyl]oxy}acetic acid]

Continued, compound first:

SMILES | EC50 [nM]
Cc1cc(OCCCC(=O)O)ccc1-c1noc(-c2ccc(OC(C)C)c(Cl)c2)n1 [Example 1, 4-{[4-(5-{3-Chloro-4-[(1-methylethyl)oxy]phenyl}-1,2,4-oxadiazol-3-yl)-3-methylphenyl]oxy}butanoic acid] | ≤ 0.1
Cc1cc(OCCCCC(=O)O)ccc1-c1noc(-c2ccc(OC(C)C)c(Cl)c2)n1 [Example 2, 5-{[4-(5-{3-Chloro-4-[(1-methylethyl)oxy]phenyl}-1,2,4-oxadiazol-3-yl)-3-methylphenyl]oxy}pentanoic acid] | ≤ 1
Cc1cc(OCC(=O)O)ccc1-c1noc(-c2ccc(OC(C)C)c(Cl)c2)n1 [Example 3, {[4-(5-{3-Chloro-4-[(1-methylethyl)oxy]phenyl}-1,2,4-oxadiazol-3-yl)-3-methylphenyl]oxy}acetic acid] | ≤ 1
CNCCOc1ccc(-c2noc(-c3ccc(OC(C)C)c(Cl)c3)n2)c(C)c1 [Example 5, 2-{[4-(5-{3-Chloro-4-[(1-methylethyl)oxy]phenyl}-1,2,4-oxadiazol-3-yl)-3-methylphenyl]oxy}-N-methylethanamine] | ≤ 10
COCCOc1ccc(-c2noc(-c3ccc(OC(C)C)c(Cl)c3)n2)c(C)c1 [Example 6, 5-{3-Chloro-4-[(1-methylethyl)oxy]phenyl}-3-(2-methyl-4-{[2-(methyloxy)ethyl]oxy}phenyl)-1,2,4-oxadiazole] | ≤ 10
CC(C)Oc1ccc(-c2nc(-c3ccc(OCCCCC(=O)O)cc3Cl)no2)cc1C#N [Example 7, 5-{[3-Chloro-4-(5-{3-cyano-4-[(1-methylethyl)oxy]phenyl}-1,2,4-oxadiazol-3-yl)phenyl]oxy}pentanoic acid] | ≤ 0.1
CC(C)Oc1ccc(-c2nc(-c3ccc(OCCCCC(=O)O)cc3)no2)cc1C#N [Example 8, 5-{[4-(5-{3-Cyano-4-[(1-methylethyl)oxy]phenyl}-1,2,4-oxadiazol-3-yl)phenyl]oxy}pentanoic acid] | ≤ 1
CC(C)Oc1ccc(-c2nc(-c3ccc(OCC(=O)O)cc3Cl)no2)cc1C#N [Example 9, {[3-Chloro-4-(5-{3-cyano-4-[(1-methylethyl)oxy]phenyl}-1,2,4-oxadiazol-3-yl)phenyl]oxy}acetic acid] | ≤ 10
CC(C)Oc1ccc(-c2nc(-c3ccc(OCCCC(=O)O)cc3Cl)no2)cc1C#N [Example 10, 4-{[3-Chloro-4-(5-{3-cyano-4-[(1-methylethyl)oxy]phenyl}-1,2,4-oxadiazol-3-yl)phenyl]oxy}butanoic acid] | ≤ 0.1
CC(C)Oc1ccc(-c2nc(-c3ccc(OCCCCC(=O)O)cc3F)no2)cc1C#N [Example 11, 5-{[4-(5-{3-Cyano-4-[(1-methylethyl)oxy]phenyl}-1,2,4-oxadiazol-3-yl)-3-fluorophenyl]oxy}pentanoic acid] | ≤ 1
COc1cc(OCCCCC(=O)O)ccc1-c1noc(-c2ccc(OC(C)C)c(C#N)c2)n1 [Example 12, 5-{[4-(5-{3-Cyano-4-[(1-methylethyl)oxy]phenyl}-1,2,4-oxadiazol-3-yl)-3-(methyloxy)phenyl]oxy}pentanoic acid] | ≤ 1
CCc1cc(OCCCNC)ccc1-c1nnc(-c2ccc(OC(C)C)c(C#N)c2)s1 [Example 13, 5-[5-(2-ethyl-4-{[3-(methylamino)propyl]oxy}phenyl)-1,3,4-thiadiazol-2-yl]-2-[(1-methylethyl)oxy]benzonitrile] | ≤ 1000
